Measurements reported in ChEMBL document CHEMBL4049385 (Bioorg Med Chem Lett, 2017).
Calls of active or inactive are those of the source. The rule behind the calls is not given here.

Assays:
[1] = target: T1, Oxysterols receptor LXR-alpha (Homo sapiens) (UniProt Q13133); assay: Agonist activity at recombinant human GAL4-DBD-fused LXRalpha-LBD expressed in HEK293T cells at 10 to 20 uM in presence of RXR-antagonist HX531 measured after 12 to 14 hrs by dual-glo luciferase reporter gene assay; format: cell-based; settings: HEK-293T
T1 sequence (whole entry): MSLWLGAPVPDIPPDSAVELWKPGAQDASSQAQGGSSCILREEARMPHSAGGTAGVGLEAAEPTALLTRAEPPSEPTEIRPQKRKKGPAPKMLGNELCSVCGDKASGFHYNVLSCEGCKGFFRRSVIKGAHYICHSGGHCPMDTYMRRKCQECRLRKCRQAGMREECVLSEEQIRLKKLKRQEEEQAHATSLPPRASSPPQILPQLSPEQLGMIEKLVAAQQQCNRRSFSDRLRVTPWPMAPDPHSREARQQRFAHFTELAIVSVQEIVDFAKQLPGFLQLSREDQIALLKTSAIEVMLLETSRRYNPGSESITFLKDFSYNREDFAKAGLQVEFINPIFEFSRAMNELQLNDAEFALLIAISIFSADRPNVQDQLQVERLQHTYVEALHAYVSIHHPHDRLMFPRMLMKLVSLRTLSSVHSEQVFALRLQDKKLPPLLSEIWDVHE

[2] = Cmax in patient with solid tumor at 300 mg/m2, po administered once daily; format: ADME, organism-based; design: route oral; settings: human, in vivo
[3] = target: T2, Oxysterols receptor LXR-alpha (Homo sapiens, UniProt Q13133); assay: Partial agonist activity at recombinant human GAL4-DBD-fused LXRalpha-LBD expressed in HEK293T cells measured after 12 to 14 hrs by dual-glo luciferase reporter gene assay; format: cell-based, HEK-293T
T2 sequence (Q13133 whole entry): T1 sequence (whole entry)

[4] = target: T1, Oxysterols receptor LXR-alpha (Homo sapiens); assay: Partial antagonist activity at recombinant human GAL4-DBD-fused LXRalpha-LBD expressed in HEK293T cells assessed as inhibition of WAY252623-induced receptor activation at 1 uM measured after 12 to 14 hrs by dual-glo luciferase reporter gene assay; format: cell-based; settings: HEK-293T
HEK-293T [5] = assay: Effect on recombinant firefly luciferase activity expressed in HEK293T cells at 1 uM after 12 to 14 hrs by luminescence assay; format: ADME, cell-based; settings: human
[6] = target: T3, Oxysterols receptor LXR-beta (Homo sapiens) (UniProt P55055); assay: Partial agonist activity at recombinant human GAL4-DBD-fused LXRbeta-LBD expressed in HEK293T cells at 10 uM measured after 12 to 14 hrs by dual-glo luciferase reporter gene assay relative to T0901317; format: cell-based; settings: HEK-293T
T3 sequence (whole entry): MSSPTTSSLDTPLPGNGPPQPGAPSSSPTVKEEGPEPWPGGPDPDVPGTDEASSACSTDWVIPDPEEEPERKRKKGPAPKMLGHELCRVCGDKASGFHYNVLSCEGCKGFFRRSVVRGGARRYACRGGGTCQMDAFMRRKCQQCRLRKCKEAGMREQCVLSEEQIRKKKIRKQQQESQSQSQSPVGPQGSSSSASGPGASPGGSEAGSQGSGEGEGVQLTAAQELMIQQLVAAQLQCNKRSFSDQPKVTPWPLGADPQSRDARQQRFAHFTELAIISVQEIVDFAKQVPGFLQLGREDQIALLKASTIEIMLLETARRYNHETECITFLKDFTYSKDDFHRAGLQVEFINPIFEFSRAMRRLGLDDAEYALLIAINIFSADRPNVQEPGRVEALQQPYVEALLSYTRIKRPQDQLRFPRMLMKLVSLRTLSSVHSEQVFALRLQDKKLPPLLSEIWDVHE

[7] = target: T4, Oxysterols receptor LXR-beta (Homo sapiens, UniProt P55055); assay: Partial agonist activity at recombinant human GAL4-DBD-fused LXRbeta-LBD expressed in HEK293T cells measured after 12 to 14 hrs by dual-glo luciferase reporter gene assay; format: cell-based, HEK-293T
T4 sequence (P55055 whole entry): T3 sequence (whole entry)

[8] = target: T1, Oxysterols receptor LXR-alpha (Homo sapiens); assay: Agonist activity at recombinant human GAL4-DBD-fused LXRalpha-LBD expressed in HEK293T cells at 1 uM in presence of LXR-agonist 22(R)-hydroxycholesterol measured after 12 to 14 hrs by dual-glo luciferase reporter gene assay; format: cell-based; settings: HEK-293T
[9] = target: T1, Oxysterols receptor LXR-alpha (Homo sapiens); assay: Partial antagonist activity at recombinant human GAL4-DBD-fused LXRalpha-LBD expressed in HEK293T cells assessed as inhibition of GW3965-induced receptor activation at 1 uM measured after 12 to 14 hrs by dual-glo luciferase reporter gene assay; format: cell-based; settings: HEK-293T
[10] = target: T1, Oxysterols receptor LXR-alpha (Homo sapiens); assay: Partial agonist activity at recombinant human GAL4-DBD-fused LXRalpha-LBD expressed in HEK293T cells at 10 uM measured after 12 to 14 hrs by dual-glo luciferase reporter gene assay relative to T0901317; format: cell-based; settings: HEK-293T
[11] = target: T1, Oxysterols receptor LXR-alpha (Homo sapiens); assay: Agonist activity at recombinant human GAL4-DBD-fused LXRalpha-LBD expressed in HEK293T cells at 10 uM in presence of LXR-agonist 22(R)-hydroxycholesterol measured after 12 to 14 hrs by dual-glo luciferase reporter gene assay; format: cell-based; settings: HEK-293T
[12] = target: T1, Oxysterols receptor LXR-alpha (Homo sapiens); assay: Partial antagonist activity at recombinant human GAL4-DBD-fused LXRalpha-LBD expressed in HEK293T cells assessed as inhibition of WAY252623-induced receptor activation at 10 uM after 12 to 14 hrs by dual-glo luciferase reporter gene assay; format: cell-based; settings: HEK-293T
[13] = target: T1, Oxysterols receptor LXR-alpha (Homo sapiens); assay: Agonist activity at recombinant human GAL4-DBD-fused LXRalpha-LBD expressed in HEK293T cells at 10 uM in presence of RXR-antagonist HX531 measured after 12 to 14 hrs by dual-glo luciferase reporter gene assay; format: cell-based; settings: HEK-293T
Homo sapiens [14] = assay: Toxicity in chronic hand eczema patient assessed as increase in triglyceride level at 30 mg, po administered once daily for 24 weeks relative to control; format: organism-based; settings: in vivo, 4032 h
HEK-293T [15] = assay: Effect on recombinant firefly luciferase activity expressed in HEK293T cells at 10 uM after 12 to 14 hrs by luminescence assay; format: ADME, cell-based; settings: human
[16] = Cmax in chronic hand eczema patient at 30 mg, po administered once daily for 24 weeks; format: ADME, organism-based; design: dose 30 mg, route oral; settings: human, in vivo
Homo sapiens [17] = assay: Toxicity in chronic hand eczema patient assessed as increase in serum cholesterol level at 30 mg, po administered once daily for 24 weeks relative to control; format: organism-based; settings: in vivo, 4032 h
[18] = target: T1, Oxysterols receptor LXR-alpha (Homo sapiens); assay: Partial antagonist activity at recombinant human GAL4-DBD-fused LXRalpha-LBD expressed in HEK293T cells assessed as inhibition of GW3965-induced receptor activation at 10 uM after 12 to 14 hrs by dual-glo luciferase reporter gene assay; format: cell-based; settings: HEK-293T

With `CC(C)CC[C@@H](O)[C@@H](C)[C@H]1CC[C@H]2[C@@H]3CC=C4C[C@@H](O)CC[C@]4(C)[C@H]3CC[C@]12C` the Activity [1] was “Active”.
For `C=C(c1ccc(C(=O)O)cc1)c1cc2c(cc1C)C(C)(C)CCC2(C)C` [BEXAROTENE], the Cmax [2] was 3.39 µM, the EC50 [3] was 196 nM and the inhibition [4] was “Active”. For the same compound, the Activity (HEK-293T [5]) was “Non-Toxic”, the fold change (FC) [6] was 2.23 and the EC50 [7] was 434 nM. For the same compound, the Activity [8] was “Active”, the inhibition [9] was “Active” and the fold change (FC) [10] was 1.82.
In the case of `CC1=C(/C=C/C(C)=C\C=C\C(C)=C\C(=O)O)C(C)(C)CCC1` [ALITRETINOIN], the Activity [11] is reported as “Active”, the inhibition [12] is reported as “Active” and the fold change (FC) [6] is reported as 1.68. The Activity [13] was “Active”, the EC50 [7] was 1730 nM and the Activity (Homo sapiens [14]) was 8%. For the same compound, the Activity (HEK-293T [15]) was “Non-Toxic”, the Cmax [16] was 810 nM and the Activity (Homo sapiens [17]) was 14%. For the same compound, the inhibition [18] was “Active” and the fold change (FC) [10] was 1.39.
Compound `Fc1ccc(-c2c3cccc(C(F)(F)F)c3nn2Cc2ccc(F)cc2Cl)cc1` [LXR-623] has an EC50 [3] of 1440 nM and an EC50 [7] of 900 nM.
